Source: patent US20210122730A1, “GLUCOCORTICOID RECEPTOR MODULATORS” (ORIC Pharmaceuticals, Inc., priority 2017, published 2021)

Experiments:
GR = target: T1, GR (Homo sapiens, UniProt P04150); experiment: In Vitro GR Luciferase Reporter Assay (antagonist mode, CHO-K1-GR-MMTV-Luc reporter cells); format: cell-based; settings: antagonist mode, 10 nM Dexamethasone
T1 construct: expressed in transfected cells; host or cells: CHO-K1
T1 sequence (P04150 1-777): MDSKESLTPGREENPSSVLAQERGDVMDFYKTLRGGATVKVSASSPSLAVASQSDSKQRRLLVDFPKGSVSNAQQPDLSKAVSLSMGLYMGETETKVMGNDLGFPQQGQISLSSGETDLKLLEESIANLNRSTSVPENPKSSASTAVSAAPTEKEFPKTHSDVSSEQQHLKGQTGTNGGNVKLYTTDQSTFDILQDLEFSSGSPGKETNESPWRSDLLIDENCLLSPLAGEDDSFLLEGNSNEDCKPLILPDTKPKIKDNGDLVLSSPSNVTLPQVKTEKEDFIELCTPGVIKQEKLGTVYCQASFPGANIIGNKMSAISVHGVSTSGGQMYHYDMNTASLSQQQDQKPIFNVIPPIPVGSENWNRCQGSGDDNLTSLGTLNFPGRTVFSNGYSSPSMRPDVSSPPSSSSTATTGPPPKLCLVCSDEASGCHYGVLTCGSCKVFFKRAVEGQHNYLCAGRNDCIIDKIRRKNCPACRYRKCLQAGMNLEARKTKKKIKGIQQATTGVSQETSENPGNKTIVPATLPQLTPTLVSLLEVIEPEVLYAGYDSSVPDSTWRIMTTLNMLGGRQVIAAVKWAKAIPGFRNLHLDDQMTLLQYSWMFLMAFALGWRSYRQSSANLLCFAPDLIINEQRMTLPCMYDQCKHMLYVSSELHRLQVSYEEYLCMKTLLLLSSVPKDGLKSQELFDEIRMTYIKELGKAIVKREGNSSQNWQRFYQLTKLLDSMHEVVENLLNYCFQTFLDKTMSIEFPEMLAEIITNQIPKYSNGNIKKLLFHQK
In short: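 Antagonist mode: compounds (8 serial 1:5 dilutions) added to GR-MMTV-luciferase CHO-K1 reporter cells co-exposed to 10 nM dexamethasone final, in phenol red-free DMEM plus 10% CSS. After roughly 18-24 h at 37° C, OneGlo luminescence read and IC50 calculated.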

CYP2C8 = target: T2, CYP2C8 (Homo sapiens, UniProt P10632); experiment: CYP Inhibition Assay (CYP2C8, human liver microsomes, paclitaxel substrate); format: in vitro ADME; settings: pH 7.4; pooled human liver microsomes 0.1 mg/mL, probe substrate paclitaxel
T2 construct: Pooled human microsomes were obtained from Sekisui XenoTech, KS; tissue Sekisui XenoTech, KS; host or cells: pooled human liver microsomes
T2 sequence (P10632 1-490): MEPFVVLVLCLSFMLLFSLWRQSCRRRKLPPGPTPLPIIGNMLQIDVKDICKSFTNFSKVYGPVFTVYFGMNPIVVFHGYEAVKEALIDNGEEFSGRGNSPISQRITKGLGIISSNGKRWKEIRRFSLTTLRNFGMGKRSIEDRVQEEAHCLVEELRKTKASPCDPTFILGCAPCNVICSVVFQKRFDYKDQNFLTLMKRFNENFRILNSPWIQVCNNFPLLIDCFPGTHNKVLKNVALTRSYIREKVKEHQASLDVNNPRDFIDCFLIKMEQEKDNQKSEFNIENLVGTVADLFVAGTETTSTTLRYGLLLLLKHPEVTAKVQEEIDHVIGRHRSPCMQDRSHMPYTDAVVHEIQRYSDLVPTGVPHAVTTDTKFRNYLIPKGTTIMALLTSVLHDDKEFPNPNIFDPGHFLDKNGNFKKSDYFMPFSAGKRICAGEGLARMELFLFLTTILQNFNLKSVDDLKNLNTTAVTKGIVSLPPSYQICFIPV
In short: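 CYP2C8 activity read as 6α-hydroxypaclitaxel formation by LC-MS/MS, with % inhibition versus vehicle control. Reactions ran 5 min at 37° C, pH 7.4 phosphate buffer, 0.1 mg/mL pooled human liver microsomes, 1 mM NADPH, duplicate wells.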

SMILES: Cn1cc(S(=O)(=O)N(CC(F)(F)F)[C@H]2CCC3=Cc4c(cnn4-c4ccc(F)cc4)C[C@]3(C(=O)c3ncc(C(F)(F)F)s3)C2)nn1 [Example 290, N-((4aS,6S)-1-(4-fluorophenyl)-4a-(5-(trifluoromethyl)thiazole-2-carbonyl)-4,4a,5,6,7,8-hexahydro-1H-benzo[f]indazol-6-yl)-1-methyl-N-(2,2,2-trifluoroethyl)-1H-1,2,3-triazole-4-sulfonamide]
- IC50 (GR): ≤ 100 nM
- inhibition at 5 min (CYP2C8): 25 to 50%

SMILES: Cn1cnc(S(=O)(=O)N(CC(F)(F)F)[C@H]2CCC3=Cc4c(cnn4-c4ccc(F)cc4)C[C@]3(C(=O)c3ncc(C(F)(F)F)s3)C2)c1 [Example 293, N-((4aS,6S)-1-(4-fluorophenyl)-4a-(5-(trifluoromethyl)thiazole-2-carbonyl)-4,4a,5,6,7,8-hexahydro-1H-benzo[f]indazol-6-yl)-1-methyl-N-(2,2,2-trifluoroethyl)-1H-imidazole-4-sulfonamide]
- IC50 (GR): ≤ 100 nM
- inhibition at 5 min (CYP2C8): ≤ 25%

SMILES: O=C(c1cc(C(F)(F)F)ccn1)[C@]12Cc3cnn(-c4ccc(F)cc4)c3C=C1CC[C@H](N(CC1CC1)S(=O)(=O)c1ccc(Cl)nc1)C2 [Example 294, 6-chloro-N-(cyclopropylmethyl)-N-((4aS,6S)-1-(4-fluorophenyl)-4a-(4-(trifluoromethyl)picolinoyl)-4,4a,5,6,7,8-hexahydro-1H-benzo[f]indazol-6-yl)pyridine-3-sulfonamide]
- IC50 (GR): ≤ 100 nM
- inhibition at 5 min (CYP2C8): ≤ 25%

SMILES: CC(C)N([C@H]1CCC2=Cc3c(cnn3-c3ccc(F)cc3)C[C@]2(C(=O)c2cc(F)ccn2)C1)S(=O)(=O)c1cn(C)nn1 [Example 295, N-((4aS,6S)-1-(4-fluorophenyl)-4a-(4-fluoropicolinoyl)-4,4a,5,6,7,8-hexahydro-1H-benzo[f]indazol-6-yl)-N-isopropyl-1-methyl-1H-1,2,3-triazole-4-sulfonamide]
- IC50 (GR): ≤ 100 nM
- inhibition at 5 min (CYP2C8): 50 to 75%

SMILES: CC(C)N([C@H]1CCC2=Cc3c(cnn3-c3ccc(F)cc3)C[C@]2(C(=O)c2cc(Cl)ccn2)C1)S(=O)(=O)c1cn(C)nn1 [Example 296, N-((4aS,6S)-4a-(4-chloropicolinoyl)-1-(4-fluorophenyl)-4,4a,5,6,7,8-hexahydro-1H-benzo[f]indazol-6-yl)-N-isopropyl-1-methyl-1H-1,2,3-triazole-4-sulfonamide]
- IC50 (GR): ≤ 100 nM
- inhibition at 5 min (CYP2C8): 50 to 75%

SMILES: Cn1ccc(S(=O)(=O)N(CC2CC2)[C@H]2CCC3=Cc4c(cnn4-c4ccc(F)cc4)C[C@]3(C(=O)c3cc(C(F)F)ccn3)C2)n1 [Example 298, N-(cyclopropylmethyl)-N-((4aS,6S)-4a-(4-(difluoromethyl)picolinoyl)-1-(4-fluorophenyl)-4,4a,5,6,7,8-hexahydro-1H-benzo[f]indazol-6-yl)-1-methyl-1H-pyrazole-3-sulfonamide]
- IC50 (GR): ≤ 100 nM
- inhibition at 5 min (CYP2C8): 50 to 75%

SMILES: CC(C)N([C@H]1CCC2=Cc3c(cnn3-c3ccc(F)cc3)C[C@]2(C(=O)c2ncc(C(F)(F)F)s2)C1)S(=O)(=O)c1cn(C)cn1 [Example 299, N-((4aS,6S)-1-(4-fluorophenyl)-4a-(5-(trifluoromethyl)thiazole-2-carbonyl)-4,4a,5,6,7,8-hexahydro-1H-benzo[f]indazol-6-yl)-N-isopropyl-1-methyl-1H-imidazole-4-sulfonamide]
- IC50 (GR): ≤ 100 nM
- inhibition at 5 min (CYP2C8): ≤ 25%

SMILES: Cn1ncc(S(=O)(=O)N(CC(F)(F)F)[C@H]2CCC3=Cc4c(cnn4-c4ccc(F)cc4)C[C@]3(C(=O)c3ncc(C(F)(F)F)s3)C2)n1 [Example 300, N-((4aS,6S)-1-(4-fluorophenyl)-4a-(5-(trifluoromethyl)thiazole-2-carbonyl)-4,4a,5,6,7,8-hexahydro-1H-benzo[f]indazol-6-yl)-2-methyl-N-(2,2,2-trifluoroethyl)-2H-1,2,3-triazole-4-sulfonamide]
- IC50 (GR): ≤ 100 nM
- inhibition at 5 min (CYP2C8): 50 to 75%

SMILES: Cc1ncc(S(=O)(=O)N(C2CC2)[C@H]2CCC3=Cc4c(cnn4-c4ccc(F)cc4)C[C@]3(C(=O)c3cc(C(F)(F)F)ccn3)C2)n1C [Example 307, N-cyclopropyl-N-((4aS,6S)-1-(4-fluorophenyl)-4a-(4-(trifluoromethyl)picolinoyl)-4,4a,5,6,7,8-hexahydro-1H-benzo[f]indazol-6-yl)-1,2-dimethyl-1H-imidazole-5-sulfonamide]
- IC50 (GR): ≤ 100 nM
- inhibition at 5 min (CYP2C8): 25 to 50%

SMILES: CCn1ccc(S(=O)(=O)[C@H]2CCC3=Cc4c(cnn4-c4ccc(F)cc4)C[C@]3(C(=O)c3ccc(C(F)(F)F)cn3)C2)n1 [Example 308, ((4aS,6S)-6-((1-ethyl-1H-pyrazol-3-yl)sulfonyl)-1-(4-fluorophenyl)-1,4,5,6,7,8-hexahydro-4aH-benzo[f]indazol-4a-yl)(5-(trifluoromethyl)pyridin-2-yl)methanone]
- IC50 (GR): ≤ 100 nM
- inhibition at 5 min (CYP2C8): 25 to 50%

SMILES: O=C(c1ccc(C(F)(F)F)cn1)[C@]12Cc3cnn(-c4ccc(F)cc4)c3C=C1CC[C@H](S(=O)(=O)c1ccn(C3CC3)n1)C2 [Example 309, ((4aS,6S)-6-((1-cyclopropyl-1H-pyrazol-3-yl)sulfonyl)-1-(4-fluorophenyl)-1,4,5,6,7,8-hexahydro-4aH-benzo[f]indazol-4a-yl)(5-(trifluoromethyl)pyridin-2-yl)methanone]
- IC50 (GR): ≤ 100 nM
- inhibition at 5 min (CYP2C8): ≤ 25%

SMILES: CC(C)n1ccc(S(=O)(=O)[C@H]2CCC3=Cc4c(cnn4-c4ccc(F)cc4)C[C@]3(C(=O)c3ccc(C(F)(F)F)cn3)C2)n1 [Example 310, ((4aS,6S)-1-(4-fluorophenyl)-6-((1-isopropyl-1H-pyrazol-3-yl)sulfonyl)-1,4,5,6,7,8-hexahydro-4aH-benzo[f]indazol-4a-yl)(5-(trifluoromethyl)pyridin-2-yl)methanone]
- IC50 (GR): ≤ 100 nM
- inhibition at 5 min (CYP2C8): 25 to 50%

SMILES: Cn1cc(S(=O)(=O)N(CC(F)F)[C@H]2CCC3=Cc4c(cnn4-c4ccc(F)cc4)C[C@]3(C(=O)c3cc(C(F)(F)F)ccn3)C2)nn1 [Example 311, N-(2,2-difluoroethyl)-N-((4aS,6S)-1-(4-fluorophenyl)-4a-(4-(trifluoromethyl)picolinoyl)-4,4a,5,6,7,8-hexahydro-1H-benzo[f]indazol-6-yl)-1-methyl-1H-1,2,3-triazole-4-sulfonamide]
- IC50 (GR): ≤ 100 nM
- inhibition at 5 min (CYP2C8): ≤ 25%

SMILES: O=C(c1ncc(C(F)(F)F)s1)[C@]12Cc3cnn(-c4ccc(F)cc4)c3C=C1CC[C@H](N(CC(F)(F)F)S(=O)(=O)c1ccc(Cl)nc1)C2 [Example 312, 6-chloro-N-((4aS,6S)-1-(4-fluorophenyl)-4a-(5-(trifluoromethyl)thiazole-2-carbonyl)-4,4a,5,6,7,8-hexahydro-1H-benzo[f]indazol-6-yl)-N-(2,2,2-trifluoroethyl)pyridine-3-sulfonamide]
- IC50 (GR): ≤ 100 nM
- inhibition at 5 min (CYP2C8): 25 to 50%

SMILES: Cn1ccc(S(=O)(=O)N(CC(F)F)[C@H]2CCC3=Cc4c(cnn4-c4ccc(F)cc4)C[C@]3(C(=O)c3cc(C(F)(F)F)ccn3)C2)n1 [Example 313, N-(2,2-difluoroethyl)-N-((4aS,6S)-1-(4-fluorophenyl)-4a-(4-(trifluoromethyl)picolinoyl)-4,4a,5,6,7,8-hexahydro-1H-benzo[f]indazol-6-yl)-1-methyl-1H-pyrazole-3-sulfonamide]
- IC50 (GR): ≤ 100 nM
- inhibition at 5 min (CYP2C8): 25 to 50%
